The results in this text go back to ChEMBL document CHEMBL1201862, “PubChem BioAssay data set” (2004).

Assay [1] can be described thus: cells. It is filed as functional, cell-based.
Assay [2] is described as follows: cells. It is filed as functional, cell-based. This is another data set of the same source.
Assay [3] has as its target Prothrombin (Bos taurus, UniProt P00735). Kind of assay: thrombin protease inhibitors – biochemical, fluorescence polarization, uHTS hits, dose response (AID 602369). The format is functional.
Assay [4] addresses 26S proteasome non-ATPase regulatory subunit 14 (Homo sapiens, UniProt O00487). Kind of assay: inhibition of proteasome subunit RPN11 – biochemical, fluorescence polarization, uHTS hits, confirmation (AID 602368). The format is functional.
The target in assay [5] is 72 kDa type IV collagenase (Homo sapiens, UniProt P08253). Kind of assay: Dose Response validation of uHTS RPN11 inhibitor hits using a MMP-2 Fluorescence assay. It is filed as functional.
The target of assay [6] is Cytochrome P450 2D6 (Homo sapiens, UniProt P10635).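 Also: CYP2D6 member of a cytochrome P450 panel assay.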
Assay [7] has as its system H4. Kind of assay: Luminescence Cell-Based Dose Response HTS to Identify Activators of 5'UTR Stem-Loop Driven Prion Protein mRNA Translation in H4 Neuroglioblastoma Cells. [Related pubchem assays: 1829 (Project Summary), 1814 (Primary HTS)]. It is filed as functional. As to conditions: Homo sapiens.
The nature of assay [8]: Luminescence Cell-Based Dose Confirmation HTS to Identify Activators of 5'UTR Stem-Loop Driven Alpha-Synuclein mRNA Translation in H4 Neuroglioblastoma Cells. [Related pubchem assays: 1829 (Project Summary), 1814 (Primary HTS)]. It is filed as functional.
Assay [9] can be described thus: Luminescence Cell-Based Dose Response HTS to Identify Activators of Luciferase Translation or Activity in H4 […] Cells. [Related pubchem assays: 1829 (Project Summary), 1814 (Primary HTS)]. The format is functional.
For assay [10], the system named is INS1. Kind of assay: INS-1E survival protection against cytokine death – cell-based, luminescence, retest, dose response (AID 449756).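 Also: cell death triggered by IL-1 beta plus TNF-alpha plus IFN-gamma mixture; protective hits raise ATP signal compared with cytokine alone wells.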 As to conditions: Rattus norvegicus. It is filed as functional.
Assay [11] is described as follows: fluconazole-exposed Candida albicans growth modulators – fluorescence, retest, confirmation (AID 2467). The format is functional, cell-based.
Assay [12] can be described thus: NIH-3T3 fibroblast cytotoxicity, dose response, cytotoxicity control, cell-based, fluorescence, Alamar Blue, secondary assay (AID 2327).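 Also: NIH-3T3 mouse fibroblasts cultured with fluconazole at 8 µg/mL.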 It is filed as functional.
The target in assay [13] is Heat shock protein HSP 90-alpha (Homo sapiens, UniProt P07900). It is filed as functional, organism-based.
For assay [14], the target named is T1, Rac GTPase-activating protein 1 (Homo sapiens, UniProt Q9H0H5).
T1 sequence (Q9H0H5 whole entry): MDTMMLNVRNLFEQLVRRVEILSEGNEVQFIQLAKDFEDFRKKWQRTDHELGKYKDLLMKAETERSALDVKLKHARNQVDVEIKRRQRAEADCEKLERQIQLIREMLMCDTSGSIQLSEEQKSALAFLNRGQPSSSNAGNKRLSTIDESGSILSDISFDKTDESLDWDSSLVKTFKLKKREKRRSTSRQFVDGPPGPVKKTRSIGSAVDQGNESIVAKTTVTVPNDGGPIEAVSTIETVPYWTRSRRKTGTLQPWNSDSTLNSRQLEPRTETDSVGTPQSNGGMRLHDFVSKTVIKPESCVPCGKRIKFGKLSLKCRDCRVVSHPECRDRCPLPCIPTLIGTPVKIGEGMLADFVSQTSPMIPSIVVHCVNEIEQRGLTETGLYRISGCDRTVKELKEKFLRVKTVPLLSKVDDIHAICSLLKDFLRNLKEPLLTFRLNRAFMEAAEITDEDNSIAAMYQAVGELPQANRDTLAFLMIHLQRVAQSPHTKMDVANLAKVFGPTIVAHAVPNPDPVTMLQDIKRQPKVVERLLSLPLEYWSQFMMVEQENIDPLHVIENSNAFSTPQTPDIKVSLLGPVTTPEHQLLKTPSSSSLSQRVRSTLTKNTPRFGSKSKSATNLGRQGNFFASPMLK
Kind of assay: blockers of MgcRacGAP-driven Rac1 GTP hydrolysis – biochemical, ADP Hunter fluorescence, primary and confirmatory, confirmation (AID 624330). It is filed as functional.

In assay [15] the target is Disintegrin and metalloproteinase domain-containing protein 17 (Homo sapiens, UniProt P78536). Kind of assay: inhibition of ADAM17 substrate cleavage – biochemical, quenched FRET substrate, counter-screen for ADAM10 exosite inhibitor project, dose response (AID 743253).
Assay [16] can be described thus: potency of ADAM10 substrate cleavage blockers – biochemical, QFRET, dose response (AID 743254).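 Also: ADAM10 enzyme with the DM2 quenched FRET peptide as substrate; EDANS fluorescence gain as the protease cuts the substrate; inhibitor potency against ADAM10 proteolytic activity.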
Assay [17] deals with Streptococcus. Kind of assay: GAS UMAA2166 growth inhibition – luminescence, BacTiterGlo, counter-screen for streptokinase expression inhibitor project, dose response (AID 1915).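 Also: potency for reduction of bacterial viability or growth.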 It is filed as functional, organism-based.
Assay [18] concerns the target T2, Streptokinase A (Streptococcus pyogenes serotype M1, UniProt P10520).
T2 sequence (P10520 whole entry): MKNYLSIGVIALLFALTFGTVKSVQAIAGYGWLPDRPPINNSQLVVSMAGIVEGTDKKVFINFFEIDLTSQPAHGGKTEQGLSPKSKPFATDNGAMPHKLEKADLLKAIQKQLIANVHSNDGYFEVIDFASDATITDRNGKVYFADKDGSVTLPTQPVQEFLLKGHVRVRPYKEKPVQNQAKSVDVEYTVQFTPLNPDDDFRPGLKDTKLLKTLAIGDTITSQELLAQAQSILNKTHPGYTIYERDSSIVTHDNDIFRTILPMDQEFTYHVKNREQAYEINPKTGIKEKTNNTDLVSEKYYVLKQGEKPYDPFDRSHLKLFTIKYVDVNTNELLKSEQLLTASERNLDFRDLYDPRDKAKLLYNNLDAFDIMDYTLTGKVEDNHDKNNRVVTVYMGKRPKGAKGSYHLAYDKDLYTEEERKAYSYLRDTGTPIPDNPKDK
Kind of assay: viability-normalized secreted streptokinase activity reduction – plasminogen activation absorbance, OD405, dose response (AID 1914).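 Also: secreted streptokinase activity via plasminogen activation per viability signal from cell pellet.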 The format is functional, Streptococcus pyogenes M1 GAS.

In assay [19] the test system is Streptococcus sp. 'group A'. Kind of assay: Streptococcus pyogenes SK(-)GAS viability under kanamycin – luminescence, BacTiterGlo, confirmation, counter-screen for streptokinase expression inhibitor project, dose response (AID 1900). It is filed as functional, organism-based.

Activity calls are given as the source filed them. Where only a bound is given, the exact number is not on record here.

Chain of 72 kDa type IV collagenase (P08253 whole entry): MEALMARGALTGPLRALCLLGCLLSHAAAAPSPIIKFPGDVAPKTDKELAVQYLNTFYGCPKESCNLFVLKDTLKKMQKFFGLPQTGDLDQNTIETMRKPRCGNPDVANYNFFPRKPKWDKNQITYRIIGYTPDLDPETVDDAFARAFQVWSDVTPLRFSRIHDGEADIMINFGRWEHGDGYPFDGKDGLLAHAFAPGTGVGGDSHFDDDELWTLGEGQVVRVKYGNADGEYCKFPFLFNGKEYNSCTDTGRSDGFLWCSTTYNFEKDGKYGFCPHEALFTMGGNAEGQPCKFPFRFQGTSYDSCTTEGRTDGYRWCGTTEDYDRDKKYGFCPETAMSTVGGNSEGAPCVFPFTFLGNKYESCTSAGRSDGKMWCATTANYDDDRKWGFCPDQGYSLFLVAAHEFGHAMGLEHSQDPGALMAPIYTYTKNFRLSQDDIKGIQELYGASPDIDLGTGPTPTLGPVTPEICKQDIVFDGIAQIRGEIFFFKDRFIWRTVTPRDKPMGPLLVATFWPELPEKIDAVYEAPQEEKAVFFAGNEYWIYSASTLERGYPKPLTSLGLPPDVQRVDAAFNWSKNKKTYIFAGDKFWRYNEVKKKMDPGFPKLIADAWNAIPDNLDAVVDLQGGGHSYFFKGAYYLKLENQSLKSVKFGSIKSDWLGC
Chain of 26S proteasome non-ATPase regulatory subunit 14 (O00487 whole entry): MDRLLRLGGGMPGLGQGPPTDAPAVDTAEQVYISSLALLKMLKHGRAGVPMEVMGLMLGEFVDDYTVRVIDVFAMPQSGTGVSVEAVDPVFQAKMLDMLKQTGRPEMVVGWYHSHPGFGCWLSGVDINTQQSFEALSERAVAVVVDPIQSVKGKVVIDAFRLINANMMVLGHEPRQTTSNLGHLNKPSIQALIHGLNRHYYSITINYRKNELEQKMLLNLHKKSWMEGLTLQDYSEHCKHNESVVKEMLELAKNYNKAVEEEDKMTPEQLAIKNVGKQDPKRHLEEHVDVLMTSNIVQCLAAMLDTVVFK
Chain of Disintegrin and metalloproteinase domain-containing protein 17 (P78536 whole entry, the tested form may be a part): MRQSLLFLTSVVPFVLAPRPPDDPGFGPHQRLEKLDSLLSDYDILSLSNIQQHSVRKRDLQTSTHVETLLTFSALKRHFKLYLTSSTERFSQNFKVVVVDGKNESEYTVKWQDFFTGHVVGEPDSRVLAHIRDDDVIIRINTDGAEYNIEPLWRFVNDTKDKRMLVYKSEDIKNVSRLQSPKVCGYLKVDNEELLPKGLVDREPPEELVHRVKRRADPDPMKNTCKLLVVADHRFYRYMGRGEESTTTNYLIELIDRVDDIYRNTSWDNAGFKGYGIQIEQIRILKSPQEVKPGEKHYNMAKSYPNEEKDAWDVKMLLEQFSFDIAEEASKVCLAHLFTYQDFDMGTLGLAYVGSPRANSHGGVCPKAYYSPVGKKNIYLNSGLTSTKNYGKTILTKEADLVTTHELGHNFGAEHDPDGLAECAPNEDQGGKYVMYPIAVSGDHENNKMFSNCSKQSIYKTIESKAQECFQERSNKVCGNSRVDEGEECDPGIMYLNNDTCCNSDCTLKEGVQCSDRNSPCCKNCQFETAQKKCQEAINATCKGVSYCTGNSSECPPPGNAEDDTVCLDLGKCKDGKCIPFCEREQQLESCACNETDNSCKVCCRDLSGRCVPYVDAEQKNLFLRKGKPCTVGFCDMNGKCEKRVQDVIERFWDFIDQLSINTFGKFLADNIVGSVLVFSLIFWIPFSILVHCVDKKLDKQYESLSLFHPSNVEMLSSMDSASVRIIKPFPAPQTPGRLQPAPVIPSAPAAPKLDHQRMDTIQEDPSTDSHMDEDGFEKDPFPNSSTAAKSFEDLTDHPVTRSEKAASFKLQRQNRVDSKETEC
Chain of Cytochrome P450 2D6 (P10635 whole entry): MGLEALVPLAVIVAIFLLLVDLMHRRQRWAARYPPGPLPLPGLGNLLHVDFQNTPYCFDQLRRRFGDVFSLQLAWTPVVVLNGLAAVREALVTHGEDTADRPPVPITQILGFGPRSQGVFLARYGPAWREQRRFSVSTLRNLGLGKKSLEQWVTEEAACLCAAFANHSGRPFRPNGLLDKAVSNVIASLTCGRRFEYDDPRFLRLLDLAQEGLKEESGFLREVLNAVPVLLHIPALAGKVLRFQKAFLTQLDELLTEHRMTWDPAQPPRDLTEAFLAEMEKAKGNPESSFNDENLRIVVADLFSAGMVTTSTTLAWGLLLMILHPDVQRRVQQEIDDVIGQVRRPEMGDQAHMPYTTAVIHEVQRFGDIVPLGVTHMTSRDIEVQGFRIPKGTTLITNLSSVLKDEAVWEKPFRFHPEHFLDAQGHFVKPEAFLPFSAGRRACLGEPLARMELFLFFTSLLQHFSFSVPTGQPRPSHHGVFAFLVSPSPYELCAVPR

`CCOC(=O)c1ccc(N2CN(CCc3ccccc3)CN=C2S)cc1`: the IC50 in assay [1] was > 29.9 µM (inactive). Besides, the EC50 in [2] was > 29.9 µM (inactive).
Regarding `N=C1/C(=C\c2ccc(-c3cccc(Cl)c3)o2)C(=O)N=C2SC=C(c3ccccc3)N12`, the IC50 in [3] is 52.9 µM (active); in assay [4] it was 27.8 µM (active); in [5], > 100 µM (inactive).
On to `NC(=Nc1cccc2ccccc12)Nc1nc(O)c2c(n1)CCC2`, for which the AC50 in assay [6] was 11.2 µM (inconclusive). For the same compound, the IC50 in assay [3] is > 100 µM (inactive); in [4] it was 24.3 µM (active); in assay [5] it was > 100 µM (inactive). The 50% effective concentration (EC50) in assay [7], in [8] and in assay [9] was > 120 µM (not active) in each case.
`COc1ccc(C(=O)NC(=S)NNC(=O)c2cnccn2)cc1`: the values for the AC50 in [10] and in assay [13] were 0.933 µM (active) and 2.71 µM (active), respectively. Moreover, the EC50 is 2.02 µM (active) in assay [11] and 9.88 µM (active) in assay [12].
With `COc1cc(/C=C2/C(=O)NN(c3ccc(Cl)cc3)C2=O)cc(Br)c1O`, the concentration for half-maximal inhibition (IC50) in assay [14] was 103 µM (active); in assay [3], 60.6 µM (active); in assay [4], 14.5 µM (active); in [5], 54.8 µM (active).
Regarding `CCN(CC)c1ccc(/C=N/NC(=O)c2cccc(S(=O)(=O)Nc3ccccc3OC)c2)cc1`, the results for the IC50 in [3], in assay [4] and in assay [5] were 33.2 µM (active), 26.3 µM (active) and > 100 µM (inactive), respectively.
As for `C#CCN(C[C@@H]1[C@@H](OC(=O)NCc2ccc(OC)c(OC)c2)[C@@H](OC(=O)NCc2ccc(OC)c(OC)c2)Cn2c(=O)n(CCCCCC)c(=O)n21)S(=O)(=O)c1ccc(C)cc1`, the IC50 in [15] and in assay [16] was > 69.5 µM (inactive) throughout.
Consider `Oc1cccc(/C=N/N(Cc2ccccc2)c2ccccc2)c1`, for which the IC50 in [15] was > 69.5 µM (inactive); in assay [16], > 7.73 µM (active). For the same compound, the EC50 in assay [17] is 7.85 µM (active); in [18], > 150 µM (not active); in assay [19], 6.42 µM (active).
